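Five compound concentrations were applied to cells in 96-well plates for 48 hours; endpoints were derived by simple linear interpolation of the resulting dose-response curve. GI50: concentration for 50% inhibition of growth.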 The source made the active and inactive calls. No stated cut-off is given here; in the data, active = GI50 up to about 1.1 µM and inactive = higher.
Tests used:
Test in all cases: NCI-60 cell line screen, 48 h
[1] = test system: OVCAR-5
[2] = test system: HCC 2998
[3] = test system: HCT-116
[4] = test system: LOX IMVI
[5] = test system: SF-539
[6] = test system: MOLT-4
[7] = test system: SF-295
[8] = test system: OVCAR-4
[9] = test system: 786-0
[10] = test system: OVCAR-8
[11] = test system: SK-MEL-5
[12] = test system: A498
[13] = test system: HCT-15
[14] = test system: A549
[15] = test system: CCRF-CEM
[16] = test system: HOP-92
[17] = test system: NCI-H522

| SMILES | GI50 [1] | GI50 [2] | GI50 [3] | GI50 [4] | GI50 [5] | GI50 [6] | GI50 [7] | GI50 [8] | GI50 [9] | GI50 [10] | GI50 [11] | GI50 [12] | GI50 [13] [µM] | GI50 [14] | GI50 [15] | GI50 [16] | GI50 [17] |
| --- | --- | --- | --- | --- | --- | --- | --- | --- | --- | --- | --- | --- | --- | --- | --- | --- | --- |
| COC(=O)Cc1cc(=O)n2c3ccccc3n(C)c2c1C#N | > 100 µM (inactive) | > 100 µM (inactive) | > 100 µM (inactive) | > 100 µM (inactive) | > 100 µM (inactive) | > 100 µM (inactive) | > 100 µM (inactive) | > 100 µM (inactive) | > 100 µM (inactive) | > 100 µM (inactive) | 52.2 µM (inactive) | > 100 µM (inactive) | > 100 | > 100 µM (inactive) |  |  |  |
| COC1OC(CO)C(O)C(NC(=O)N(C)N=O)C1O (stereo unspecified) |  | > 100 µM (inactive) | > 100 µM (inactive) |  | > 100 µM (inactive) | > 100 µM (inactive) | > 100 µM (inactive) | > 100 µM (inactive) | > 100 µM (inactive) | > 100 µM (inactive) | > 100 µM (inactive) | > 100 µM (inactive) | > 100 | > 100 µM (inactive) | > 100 µM (inactive) | > 100 µM (inactive) | > 100 µM (inactive) |
| COC1(OC)C2(Cl)C(Cl)=C(Cl)C1(Cl)C1C=CC=CC12 (stereo unspecified) | > 100 µM (inactive) | 65.2 µM (inactive) | 43.5 µM (inactive) | 40.2 µM (inactive) | > 100 µM (inactive) |  | > 100 µM (inactive) | > 100 µM (inactive) | > 100 µM (inactive) | > 100 µM (inactive) | 53.2 µM (inactive) |  | 54.5 | 69 µM (inactive) | > 10 µM (inactive) | 40.2 µM (inactive) | 23.8 µM (inactive) |
| Cn1nc(-c2ccccc2)c(C(=O)/C=C/c2ccc(Cl)cc2)c(N2CCOCC2)c1=O |  |  | 1.85 µM (inactive) | 3.44 µM (inactive) | 2.5 µM (inactive) | 0.752 µM (active) | 0.412 µM (active) |  | 2.87 µM (inactive) | 4.13 µM (inactive) | 4.98 µM (inactive) | 4.22 µM (inactive) | 2.74 | 3.89 µM (inactive) | 2.45 µM (inactive) | 2.11 µM (inactive) | 2.43 µM (inactive) |
| COc1ccc(C(=O)C(C(=O)C(=O)Nc2nc3ccc(OC)cc3s2)c2ccc(OC)cc2)cc1 (stereo unspecified) | > 100 µM (inactive) | > 100 µM (inactive) |  | > 100 µM (inactive) | > 100 µM (inactive) | > 100 µM (inactive) | > 100 µM (inactive) | > 100 µM (inactive) | > 100 µM (inactive) | > 100 µM (inactive) | 55.2 µM (inactive) | > 100 µM (inactive) | > 100 | > 100 µM (inactive) | > 100 µM (inactive) | > 100 µM (inactive) |  |
| COc1ccc(C(=O)NCCN(C)C)c2nc3ccccc3nc12 | 8.61 µM (inactive) | 5.15 µM (inactive) | 2.24 µM (inactive) | 2.01 µM (inactive) | 4.57 µM (inactive) | 1.94 µM (inactive) | 6.82 µM (inactive) | 4.09 µM (inactive) | 9.06 µM (inactive) | 4.3 µM (inactive) | 4.81 µM (inactive) | 4.21 µM (inactive) | 3.66 | 4.93 µM (inactive) |  | 9.51 µM (inactive) | 11.7 µM (inactive) |
| COc1ccc(N2C(=O)[C@@H](N=[N+]=[N-])[C@@H]2[C@H]2COC(C)(C)O2)cc1 | > 100 µM (inactive) | > 100 µM (inactive) | > 100 µM (inactive) |  | > 100 µM (inactive) | > 100 µM (inactive) | > 100 µM (inactive) | > 100 µM (inactive) | > 100 µM (inactive) | > 100 µM (inactive) | > 100 µM (inactive) |  | > 100 | > 100 µM (inactive) | > 100 µM (inactive) | > 100 µM (inactive) | > 100 µM (inactive) |
| CN(C)CCNC(=O)c1cccc2nc3cc(Cl)ccc3nc12 | 3.05 µM (inactive) | 2.65 µM (inactive) | 0.764 µM (active) | 1.26 µM (inactive) | 3.12 µM (inactive) | 0.378 µM (active) | 3.25 µM (inactive) | 2.42 µM (inactive) | 3.79 µM (inactive) | 1.99 µM (inactive) | 3.19 µM (inactive) | 1.65 µM (inactive) | 2.43 | 2.56 µM (inactive) |  | 5.77 µM (inactive) | 2.92 µM (inactive) |
| c1ccc2cc3[s+]snc3cc2c1 | > 100 µM (inactive) | > 100 µM (inactive) | > 100 µM (inactive) | > 100 µM (inactive) | > 100 µM (inactive) | > 100 µM (inactive) | > 100 µM (inactive) | > 100 µM (inactive) | > 100 µM (inactive) | > 100 µM (inactive) | 97.9 µM (inactive) | > 100 µM (inactive) | > 100 | > 100 µM (inactive) | 89.7 µM (inactive) |  | > 100 µM (inactive) |
| COc1cccc(NC(=O)CC(=O)N2N=C(N(CCC#N)c3ccccc3C)CC2c2ccccc2)c1 (stereo unspecified) | > 100 µM (inactive) | > 100 µM (inactive) | > 100 µM (inactive) |  | > 100 µM (inactive) | > 100 µM (inactive) | > 100 µM (inactive) | > 100 µM (inactive) | > 100 µM (inactive) | > 100 µM (inactive) | > 100 µM (inactive) |  | > 100 | > 100 µM (inactive) | > 100 µM (inactive) | > 100 µM (inactive) | > 100 µM (inactive) |
| N#CC(C(=O)CCCC(=O)Nc1ccc(Cl)cc1Cl)c1ccc(Cl)cc1 (stereo unspecified) | > 100 µM (inactive) | > 100 µM (inactive) | > 100 µM (inactive) | > 100 µM (inactive) | > 100 µM (inactive) | > 100 µM (inactive) | > 100 µM (inactive) | > 100 µM (inactive) | > 100 µM (inactive) | > 100 µM (inactive) |  |  | > 100 | > 100 µM (inactive) |  | > 100 µM (inactive) | > 100 µM (inactive) |
| CC(N)Cc1ccc(C(=O)Cl)cc1 (stereo unspecified) |  | > 100 µM (inactive) | > 100 µM (inactive) | > 100 µM (inactive) | > 100 µM (inactive) | > 100 µM (inactive) | > 100 µM (inactive) | > 100 µM (inactive) | > 100 µM (inactive) | > 100 µM (inactive) | > 100 µM (inactive) | > 100 µM (inactive) | > 100 | > 100 µM (inactive) | > 100 µM (inactive) |  | > 100 µM (inactive) |
| Nc1ccn(CCOC(=O)c2ccccc2)c(=O)n1 | > 100 µM (inactive) |  | > 100 µM (inactive) | > 100 µM (inactive) | > 100 µM (inactive) |  | > 100 µM (inactive) | > 100 µM (inactive) | > 100 µM (inactive) | > 100 µM (inactive) | > 100 µM (inactive) | > 100 µM (inactive) | > 100 | > 100 µM (inactive) | > 100 µM (inactive) | > 100 µM (inactive) | > 100 µM (inactive) |
| Nc1ncnc2c1ncn2C1OC(CSCC(F)(F)F)C(O)C1O (stereo unspecified) | > 100 µM (inactive) | > 100 µM (inactive) | > 100 µM (inactive) | > 100 µM (inactive) | > 100 µM (inactive) | > 100 µM (inactive) | > 100 µM (inactive) | > 100 µM (inactive) | > 100 µM (inactive) | > 100 µM (inactive) | > 100 µM (inactive) |  | > 100 | > 100 µM (inactive) |  | > 100 µM (inactive) | 45 µM (inactive) |
| CCOC(=O)N1C(c2ccccc2)C=CC(c2ccccc2)N1C(=O)OCC (stereo unspecified) | > 100 µM (inactive) |  | > 100 µM (inactive) | > 100 µM (inactive) | > 100 µM (inactive) |  | > 100 µM (inactive) | > 100 µM (inactive) | > 100 µM (inactive) | > 100 µM (inactive) | > 100 µM (inactive) | > 100 µM (inactive) | > 100 | > 100 µM (inactive) | > 100 µM (inactive) | > 100 µM (inactive) |  |
| OCCc1cnco1 |  | > 100 µM (inactive) | > 100 µM (inactive) | > 100 µM (inactive) | > 100 µM (inactive) | > 100 µM (inactive) | > 100 µM (inactive) | > 100 µM (inactive) | > 100 µM (inactive) | > 100 µM (inactive) | > 100 µM (inactive) |  |  | > 100 µM (inactive) | > 100 µM (inactive) |  | > 100 µM (inactive) |
| O=C(O)CNc1c2ccccc2[n+]([O-])c2ccccc12 | > 100 µM (inactive) | > 100 µM (inactive) | 44.6 µM (inactive) | 78.7 µM (inactive) |  | 69.3 µM (inactive) | > 100 µM (inactive) | 94.2 µM (inactive) | > 100 µM (inactive) | 78.7 µM (inactive) | 45.5 µM (inactive) | > 100 µM (inactive) | 72.1 | > 100 µM (inactive) | 21.2 µM (inactive) |  | 50.1 µM (inactive) |
| CN1C(=O)C2C3C=C4c5ccccc5N(c5ccccc5)C4(C2C1=O)[C@H]1C(=O)N(C)C(=O)[C@@H]31 (stereo partly specified) | > 100 µM (inactive) | > 100 µM (inactive) | > 100 µM (inactive) | > 100 µM (inactive) |  | > 100 µM (inactive) | > 100 µM (inactive) | > 100 µM (inactive) | > 100 µM (inactive) | > 100 µM (inactive) |  | > 100 µM (inactive) |  | > 100 µM (inactive) | > 100 µM (inactive) | > 100 µM (inactive) | > 100 µM (inactive) |
| [N-]=[N+]=NC(CBr)c1cn([C@H]2C[C@H](O)[C@@H](CO)O2)c(=O)[nH]c1=O (stereo partly specified) | > 100 µM (inactive) | > 100 µM (inactive) | > 100 µM (inactive) | > 100 µM (inactive) | > 100 µM (inactive) | > 100 µM (inactive) | > 100 µM (inactive) |  | > 100 µM (inactive) | > 100 µM (inactive) | > 100 µM (inactive) |  | > 100 | > 100 µM (inactive) | > 100 µM (inactive) | > 100 µM (inactive) | > 100 µM (inactive) |

Source: ChEMBL document CHEMBL1201862, “PubChem BioAssay data set” (2004)
